“Also recorded” adds a separate entry of the source.
Experiments:
E. coli ribosome = test: In vitro degradation of E. coli ribozyme (agarose gel); type: biochemical; conditions: 15 mM to 0.47 mM, 18 hours, 200 μM ribozyme
Experimental: The degradation activity was measured in an in vitro assay, targeting the E. coli ribosome. […] Evaluation was made by agarose gel analysis.

pseudoknot = conditions: relative to MTDB (Park et al., 2011); cited from earlier work
[1] = system: RNA 69-er with a sequence that corresponds to the coronaviral pseudoknot; type: biochemical; conditions: 1 mM, 3 h incubation, 37° C.
[2] = system: RNA extracted from SARS-CoV-2; type: biochemical; conditions: 100 μM, 2 h, 37° C.
SARS-CoV-2 [3] = test: Drug assay of SARS-CoV-2 replication on Vero CCL-81 cells (PCR); type: cell-based; conditions: Vero CCL-81, MOI 0.05, 24 h, added 1 h before or 1 h after infection
SARS-CoV-2 [4] = type: cell-based; conditions: 6 μM for 24 h, added before or after infection, vs vehicle control
SARS-CoV-2 [5] = test: Virucidal activity on cell free virions; conditions: 6 μM, 1 h at 37° C., 1000 PFU, plaque assay
SARS-CoV-2 [6] = type: in vivo, K18-hACE2 mice; conditions: 10 mg/kg intranasally 1 hour pre- and 3 hours post-infection, day 5, plaque assay, vs vehicle
[7] = system: oligomer corresponding to the coronaviral pseudoknot; conditions: shape of MST binding curve
[8] = molecular target: perturbed pseudoknot oligonucleotide; test: Micro-scale thermophoresis (MST), perturbed pseudoknot; type: binding; conditions: FAM-tagged oligonucleotide 50 nM, HEPES pH 7.4, 25.0° C.
[9] = system: frameshifting in SARS-CoV-2; conditions: Kelly et al., 2020; cited from earlier work
[10] = Solubility in aqueous media
[11] = system: G4 structure found on 5′UTR of NRAS mRNA; test: Fluorescence quenching assay; type: binding; conditions: Cy5-tagged oligonucleotide 50 nM, HEPES pH 7.4, 25.0° C.
Experimental: To prepare oligonucleotides for binding studies, oligonucleotides were dissolved at an appropriate buffer to a final concentration of 100 nM, then incubated at 95° C. with shaking for 5 min. Samples were allowed to cool at room temperature for at least 1 h before further dilutions/treatments.
Cy5-tagged oligonucleotide corresponding to G4 structure found on 5′UTR of NRAS mRNA (final concentration 50 nM) were dissolved in 20 mM HEPES pH 7.4 buffer supplemented with KCl (100 mM) and MgCl2 (10 mM) and plated on a 96-well plate. Oligonucleotides were treated with various concentrations of PDS family ligands as indicated, ranging from 5 nM to 10 μM, or a water vehicle control, followed by 30 minute incubation at 4° C. Fluorescence corresponding to Cy5 fluorophore was then measured for each oligonucleotide-small molecule/vehicle control combination using a plate reader (BMG CLARIOstar) at 25.0° C. […] Fluorescence was normalised to a vehicle control and binding curves for each molecule were obtained via a sigmoidal fit by setting the Hill Slope coefficient to 1.
PDS and its derivatives were incubated with a Cy5-functionalised oligomer corresponding to a G-quadruplex in NRAS 5′UTR, a well-established G4 model. As fluorescence quenching is proximity-induced, the signal corresponding to Cy5 is quenched upon PDS binding. […]

## chloramphenicol-6PEG-imidazole degrader [18a]
E. coli ribosome
  ribosome degradation: no degradation visible

## chloramphenicol-2PEG-imidazole degrader [18b]
E. coli ribosome
  ribosome degradation: ribosome degradation could be observed at a concentration of 15 mM
E. coli ribosome; listed as diethylene glycol linker
  ribosome degradation: degradation visible at 15 mM concentration

## CCOC(=O)c1ccccc1NC(=O)N1CCCN(Cc2ccsc2)CC1 [TDB]
pseudoknot
  binding affinity towards the pseudoknot: lower binding affinity towards the pseudoknot

## chloramphenicol-ethyl-imidazole degrader [18c]
E. coli ribosome
  ribosome degradation: no degradation visible

## CCOC(=O)c1ccccc1NC(=O)N1CCCN(Cc2csc(C)n2)CC1 [MTDB]
[1]
  degradation of RNA pseudoknot: no degradation
[2]
  degradation of native SARS-CoV-2 RNA on agarose gel: do not
SARS-CoV-2 [3]
  antiviral effect (viral replication, E gene and pseudoknot region RNA): did not exhibit an antiviral effect; also recorded: did not inhibit viral replication
SARS-CoV-2 [4]
  number of viral plaques: only showed decreased number of viral plaques when added before infection
SARS-CoV-2 [5]
  virucidal effect: no virucidal effect was observed; also recorded: no virucidal effect on cell free virions
SARS-CoV-2 [6]
  lung viral load: No differences in lung viral load
[7]
  concentration with noticeable binding: ≥ 187.5 µM
[8]
  KD: No appreciable binding was observed
[9]
  frameshifting: known to disrupt frameshifting in SARS-CoV-2
[10]
  solubility: not soluble enough for KD determination using MST; also recorded: limited solubility

## NCCOc1cc(C(=O)Nc2cc(OCCN)c3ccccc3n2)nc(C(=O)Nc2cc(OCCN)c3ccccc3n2)c1 [PDS, Pyridostatin]
[11]
  EC50: 51 nM

## O=C(N[C@H](CO)[C@H](O)c1ccc([N+](=O)[O-])cc1)C(Cl)Cl [chloramphenicol, Chloramphenicol]
E. coli ribosome
  ribosome degradation: no degradation

Source: patent US20240417778A1, “Methods for Nucleic Acid Cleavage” (priority 2021, published 2024)
